Measured values: patent US20150246898A1, “METALLOENZYME INHIBITOR COMPOUNDS” (DOW AGROSCIENCES LLC, priority 2012, published 2015)
In brackets after ≈: the same amount, converted by molar mass.

Key:
[1] = tested on: Puccinia recondita tritici = Puccinia triticina (PUCCRT); test: Fungicidal activity vs. leaf rust on wheat plants (1-day protectant spray); format: in vivo; settings: wheat (variety Yuma) sprayed at 50 ppm, inoculated next day, disease severity evaluated 7-9 days later, read-out: Puccinia Rating (% Disease Control @ 50 ppm)
From the text: Each pot contained 3-8 seedlings. These plants were sprayed until wet with the formulated test compounds. The compounds were formulated at 50 ppm in 10 vol. % acetone plus 90 vol. % Triton X water (deionized water 99.99 wt %+0.01 wt % Triton X100), giving a “formulated test compound.” Formulated test compounds were applied to plants using a turn table sprayer fitted with two opposing air atomization nozzles which delivered approximately 1500 L/ha of spray volume. On the following day, the leaves were inoculated with an aqueous spore suspension of Puccinia recondita tritici and the plants were kept in high humidity overnight to permit spores to germinate and infect the leaf. The plants were then transferred to a greenhouse until disease developed on untreated control plants. Disease severity was evaluated 7-9 days later, depending on the speed of disease development. In each case of Table 3, the Puccinia rating scale is as follows: […]

[2] = tested on: Septoria tritici (ATCC 26517); test: Minimum Inhibitory Concentration (MIC) vs. Septoria tritici, CLSI-based microdilution; format: cell-based; settings: Zymoseptoria tritici, ATCC26517, 168 h; MIC = 50% reduction in growth of S. tritici, 7 days at 22 °C, RPMI/MOPS, 1% DMSO; read-out: Septoria Rating (MIC)
Description: Compounds of the present disclosure were assessed for their ability to inhibit the growth of a common strain of the fungal plant pathogen Septoria tritici (ATCC 26517) using a procedure based on a Clinical and Laboratory Standards Institute (CLSI) microdilution assay protocol for filamentous fungi. Stock solutions of the test compounds and standards were prepared in DMSO at 6400 μg/mL. Each stock solution was used to prepare a 2-fold dilution series ranging from 16 to 0.016 μg/mL (total of 11 compound concentrations) in RPMI-1640 (Roswell Park Memorial Institute) medium containing 3-(N-morpholino)propanesulfonic acid (MOPS) buffer and 2% DMSO. A 100 μL aliquot of the dilutions was added to columns 1 (16 μg/mL compound) through 11 (0.016 μg/mL compound) of a 96-well microtiter plate. This format was replicated in a second row of the microtiter plate. Thus, each microtiter plate could include 11 concentrations of four test or control compounds replicated twice. A 100 μL aliquot of RPMI-1640/MOPS/2% DMSO medium was added to column 12 (no compound control) of the microtiter plate. A fresh culture of S. tritici was used to prepare a solution of approximately 5×10^4 colony-forming units per milliliter (cfu/mL) in RPMI/MOPS medium without DMSO. A 100 μL aliquot of this solution was added to all 96 wells in the microtiter plate. […] In each case of Table 3 the Septoria rating scale is as follows: […]

| Structure (SMILES) | pest or weed control at 50 ppm [1] [%] | MIC [2] [µg/mL] |
| --- | --- | --- |
| CC(C)(C)C(O)(c1cncnc1)C(F)(F)c1ccc(C#Cc2ccc(Cl)cc2)cn1 (racemic) [Example 62] | < 40 | ≤ 0.5 |
| OC(c1cncnc1)(c1ccc(F)cc1F)C(F)(F)c1ccc(C#Cc2ccc(NCC(F)(F)F)cc2)cn1 (racemic) [Example 36] | – | ≤ 0.5 |
| OC(c1cncnc1)(c1ccc(F)cc1F)C(F)(F)c1ccc(Oc2ccc(Cl)cc2)cn1 (racemic) [Example 40] | – | > 4 |
| COc1ccc(Oc2ccc(C(F)(F)C(O)(c3cncnc3)c3ccc(F)cc3F)nc2)cc1 (racemic) [Example 42] | 80 to 100 | 0.5 to 1.5 (≈ 1.06 to 3.18 µM) |
| OC(c1cncnc1)(c1ccc(F)cc1F)C(F)(F)c1ccc(-c2ccc(OC(F)(F)F)cc2)cn1 (racemic) [Example 3, 1-(2,4-difluorophenyl)-2,2-difluoro-1-(pyrimidin-5-yl)-2-(5-(4-(trifluoromethoxy)phenyl)pyridin-2-yl)ethanol] | < 40 | 0.5 to 1.5 (≈ 0.982 to 2.94 µM) |
| OC(c1ccc(Cl)cc1)(c1cncnc1)C(F)(F)c1ccc(OCc2ccc(Cl)cc2)cn1 (stereo not shown) [Example 69] | < 40 | – |
| CC(C)C(O)(c1cncnc1)C(F)(F)c1ccc(OCc2ccc(Cl)cc2)cn1 (racemic) [Example 53] | – | 0.5 to 1.5 (≈ 1.19 to 3.57 µM) |
| COc1ccc(COc2ccc(C(F)(F)C(O)(c3cncnc3)c3ccc(F)cc3F)nc2)cc1 (racemic) [Example 49] | – | 0.5 to 1.5 (≈ 1.03 to 3.09 µM) |
| N#Cc1ccc(C#Cc2ccc(C(F)(F)C(O)(c3ccc(F)cc3)c3cncnc3)nc2)cc1 (racemic) [Example 44] | – | > 4 |
| O=C(Nc1ccc(C#Cc2ccc(C(F)(F)C(O)(c3cncnc3)c3ccc(F)cc3F)nc2)cc1)C(F)(F)F (racemic) [Example 38] | < 40 | 0.5 to 1.5 (≈ 0.892 to 2.68 µM) |
| N#Cc1cccc(C#Cc2ccc(C(F)(F)C(O)(c3cncnc3)c3ccc(F)cc3F)nc2)c1 (racemic) [Example 18, 3-((6-(2-(2,4-Difluorophenyl)-1,1-difluoro-2-hydroxy-2-(pyrimidin-5-yl)ethyl)pyridin-3-yl)ethynyl)benzonitrile] | 80 to 100 | ≤ 0.5 |
| O=[N+]([O-])c1ccc(C#Cc2ccc(C(F)(F)C(O)(c3cncnc3)c3ccc(F)cc3F)nc2)cc1 (racemic) [Example 16, 1-(2,4-Difluorophenyl)-2,2-difluoro-2-(5-((4-nitrophenyl)ethynyl)pyridin-2-yl)-1-(pyrimidin-5-yl)ethanol] | 60 to 79 | ≤ 0.5 |
| OC(c1cncnc1)(c1ccc(F)cc1F)C(F)(F)c1ccc(OCc2ccc(F)c(F)c2)cn1 (racemic) [Example 60] | 60 to 79 | 0.5 to 1.5 (≈ 1.02 to 3.05 µM) |
| CNc1ccc(C#Cc2ccc(C(F)(F)C(O)(c3cncnc3)c3ccc(F)cc3F)nc2)cc1 (racemic) [Example 7, 1-(2,4-difluorophenyl)-2,2-difluoro-2-(5-((4-(methylamino)phenyl)ethynyl)pyridin-2-yl)-1-(pyrimidin-5-yl)ethanol] | < 40 | ≤ 0.5 |
| OC(c1cncnc1)(c1ccc(F)cc1F)C(F)(F)c1ccc(OCc2ccc(C(F)(F)F)cc2)cn1 (racemic) [Example 65] | 80 to 100 | ≤ 0.5 |
| Nc1ccc(C#Cc2ccc(C(F)(F)C(O)(c3ccc(Cl)cc3)c3cncnc3)nc2)cc1 (racemic) [Example 55] | < 40 | 0.5 to 1.5 (≈ 1.08 to 3.24 µM) |
| OC(c1cncnc1)(c1ccc(F)cc1F)C(F)(F)c1ccc(C#Cc2ccc(Cl)cc2)cn1 (racemic) [Example 13] | 80 to 100 | ≤ 0.5 |
| N#Cc1ccc(COc2ccc(C(F)(F)C(O)(c3cncnc3)c3ccc(F)cc3F)nc2)cc1 (racemic) [Example 56] | – | 0.5 to 1.5 (≈ 1.04 to 3.12 µM) |
| CC(C)C(O)(c1cncnc1)C(F)(F)c1ccc(OCc2ccc(C#N)cc2)cn1 (racemic) [Example 57] | – | > 4 |
| OC(c1cccnn1)(c1ccc(F)cc1F)C(F)(F)c1ccc(C#Cc2ccc(F)cc2)cn1 (racemic) [Example 24] | – | > 4 |
| OC(c1cncs1)(c1ccc(F)cc1F)C(F)(F)c1ccc(C#Cc2ccc(F)cc2)cn1 (racemic) [Example 28] | – | 1.5 to 4 (≈ 3.18 to 8.47 µM) |
| CC(C)C(O)(c1cncnc1)C(F)(F)c1ccc(C#Cc2ccc(F)cc2)cn1 (racemic) [Example 63] | – | 0.5 to 1.5 (≈ 1.26 to 3.77 µM) |
| CC(C)C(O)(c1cncnc1)C(F)(F)c1ccc(OCc2ccc(Cl)cc2F)cn1 (racemic) [Example 50] | – | 1.5 to 4 (≈ 3.43 to 9.14 µM) |

| Structure (SMILES) | pest or weed control at 50 ppm [1] [%] | MIC [2] [µg/mL] |
| --- | --- | --- |
| OC(c1nc[nH]n1)(c1ccc(F)cc1F)C(F)(F)c1ccc(C#Cc2ccc(F)cc2)cn1 (racemic) [Example 27] | < 40 | > 4 |
| OC(c1cncnc1)(c1ccc(F)cc1F)C(F)(F)c1ccc(C#CCOCC(F)(F)F)cn1 (racemic) [Example 6, 1-(2,4-difluorophenyl)-2,2-difluoro-1-(pyrimidin-5-yl)-2-(5-(3-(2,2,2-trifluoroethoxy)prop-1-ynyl)pyridin-2-yl)ethanol] | – | > 4 |
| N#Cc1ccc(COc2ccc(C(F)(F)C(O)(c3cncnc3)c3ccc(F)cc3F)nc2)c(F)c1 (racemic) [Example 68] | 80 to 100 | – |
| O=[N+]([O-])c1ccc(COc2ccc(C(F)(F)C(O)(c3cncnc3)c3ccc(F)cc3F)nc2)cc1 (racemic) [Example 58] | – | 1.5 to 4 (≈ 3 to 7.99 µM) |
| OC(c1cc[nH]n1)(c1ccc(F)cc1F)C(F)(F)c1ccc(C#Cc2ccc(F)cc2)cn1 (racemic) [Example 30] | – | 1.5 to 4 (≈ 3.29 to 8.78 µM) |
| OC(c1cnco1)(c1ccc(F)cc1F)C(F)(F)c1ccc(C#Cc2ccc(F)cc2)cn1 (racemic) [Example 29] | – | > 4 |
| N#Cc1ccc(C#Cc2ccc(C(F)(F)C(O)(c3cncnc3)c3ccc(F)cc3F)nc2)cn1 (racemic) [Example 17] | – | 0.5 to 1.5 (≈ 1.05 to 3.16 µM) |
| CCC(O)(c1cncnc1)C(F)(F)c1ccc(C#Cc2ccc(C#N)cc2)cn1 (racemic) [Example 46] | – | 1.5 to 4 (≈ 3.84 to 10.2 µM) |
| OC(c1c[nH]nn1)(c1ccc(F)cc1F)C(F)(F)c1ccc(C#Cc2ccc(F)cc2)cn1 (racemic) [Example 26] | – | > 4 |
| OC(c1cncnc1)(C(F)(F)F)C(F)(F)c1ccc(-c2ccc(Cl)cc2)cn1 (racemic) [Example 71, 1-(5-(4-Chlorophenyl)pyridin-2-yl)-1,1,3,3,3-pentafluoro-2-(pyrimidin-5-yl)propan-2-ol] | – | ≤ 0.5 |
| Oc1ccc(C#Cc2ccc(C(F)(F)C(O)(c3cncnc3)c3ccc(F)cc3F)nc2)cc1 (racemic) [Example 19, 4-((6-(2-(2,4-Difluorophenyl)-1,1-difluoro-2-hydroxy-2-(pyrimidin-5-yl)ethyl)pyridin-3-yl)ethynyl)phenol] | – | ≤ 0.5 |
| N#Cc1ccc(-c2ccc(C(F)(F)C(O)(c3cncnc3)c3ccc(F)cc3F)nc2)cc1 (racemic) [Example 4, 4-(6-(2-(2,4-difluorophenyl)-1,1-difluoro-2-hydroxy-2-(pyrimidin-5-yl)ethyl)pyridin-3-yl)benzonitrile] | – | > 4 |
| OC(c1cnccn1)(c1ccc(F)cc1F)C(F)(F)c1ccc(C#Cc2ccc(F)cc2)cn1 (racemic) [Example 25] | < 40 | – |
| OC(c1cncnc1)(c1ccc(F)cc1F)C(F)(F)c1ccc(OCc2cccc(Cl)c2)cn1 (racemic) [Example 59] | – | 0.5 to 1.5 (≈ 1.02 to 3.06 µM) |
| O/N=C/c1ccc(C#Cc2ccc(C(F)(F)C(O)(c3cncnc3)c3ccc(F)cc3F)nc2)cc1 (racemic) [Example 23] | – | 1.5 to 4 (≈ 3.05 to 8.12 µM) |
| OC(c1ccc(Cl)cc1)(c1cncnc1)C(F)(F)c1ccc(Oc2cccc(Cl)c2)cn1 (stereo not shown) [Example 61] | – | 1.5 to 4 (≈ 3.16 to 8.43 µM) |
| OC(c1cncnc1)(c1ccc(F)cc1F)C(F)(F)c1ccc(OCc2ccc(C(F)F)cc2)cn1 (racemic) [Example 54] | – | > 4 |
| O=Cc1ccc(C#Cc2ccc(C(F)(F)C(O)(c3cncnc3)c3ccc(F)cc3F)nc2)cc1 (racemic) [Example 31] | – | 0.5 to 1.5 (≈ 1.05 to 3.14 µM) |
| N#Cc1cccc(C#Cc2ccc(C(F)(F)C(O)(c3ccc(Cl)cc3)c3cncnc3)nc2)c1 (racemic) [Example 66] | – | 0.5 to 1.5 (≈ 1.06 to 3.17 µM) |
| N#Cc1ccc(CCc2ccc(C(F)(F)C(O)(c3cncnc3)c3ccc(F)cc3F)nc2)cc1 (racemic) [Example 32] | – | ≤ 0.5 |
| CSc1ccc(C#Cc2ccc(C(F)(F)C(O)(c3cncnc3)c3ccc(F)cc3F)nc2)cc1 (racemic) [Example 22] | – | 1.5 to 4 (≈ 3.03 to 8.07 µM) |
| CCCC(O)(c1cncnc1)C(F)(F)c1ccc(C#Cc2ccc(C#N)cc2)cn1 (racemic) [Example 45] | – | 1.5 to 4 (≈ 3.71 to 9.89 µM) |
| CNc1ccc(CCc2ccc(C(F)(F)C(O)(c3cncnc3)c3ccc(F)cc3F)nc2)cc1 (racemic) [Example 33] | – | ≤ 0.5 |
